A short description of series [1]: Microsomal stability in vitro assay. The class given is in vitro ADME. Conditions: rat liver microsomes 1 mg/mL, 4 μM compound, 2 mM NADPH. The protocol:
Pooled rat liver microsomes (BD Biosciences, #452701) were preincubated with test compounds at 37.5° C. for 5 min in the absence of NADPH. The reaction was initiated by addition of NADPH and incubated under the same conditions. The final incubation concentrations were 4 μM test compound, 2 mM NADPH, and 1 mg/mL (total protein) liver microsomes in phosphate-buffered saline (PBS) at pH 7.4. One aliquot (100 μL) of the incubation mixture was withdrawn at 15 min time points and combined immediately with 100 μL of ACN/MeOH. After mixing, the sample was centrifuged at approximately 13000 rpm for 12 min. The supernatant was filtered and transferred into an autosampler vial and the amount of test compound was quantified using a Shimadzu LCMS 2010EV mass spectrometer. The change of the AUC (area under the curve) of the parent compound as a function of time was used as a measure of microsomal stability. Test compounds were run in duplicate with a positive control.

The next series has as its target rat mGlu2 receptor (Rattus norvegicus (Rat), UniProt P31421). Nature of the series: mGlu2 in vitro GIRK thallium flux assay. The class given is cell-based. Conditions: NAM, EC80 glutamate, HEK-293 GIRK cells. The gist of the method:
(§1)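 Cells expressing rat mGlu2 or mGlu3 with GIRK, plated overnight at 37 °C. Test compounds (0.3% DMSO, 10-point 1:3 series) preincubated 2.5 or 60 min, then thallium buffer plus EC80 glutamate added. Fluorescence slope 5–15 s after addition, normalised to vehicle and maximal agonist, fitted by four-parameter logistic.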

The target of a further series is rat mGlu3 receptor (Rattus norvegicus (Rat), UniProt P31422). Nature of the series: mGlu3 in vitro GIRK thallium flux assay. Conditions: NAM; 2.5 min compound incubation; EC80 glutamate; HEK-293 GIRK cells. The class given is cell-based. The essentials: as §1
Series [2] can be described thus: Plasma stability in vitro assay. It is filed as in vitro ADME. Conditions: rat plasma, 100 μM, 37.5° C. The protocol:
A 20 μL aliquot of a 10 mM solution in DMSO of the test compound was added to 2.0 mL of heparinized rat plasma (Lampire, P1-150N) to obtain a 100 μM final solution. The mixture was incubated for 1 h at 37.5° C. Aliquots of 100 μL were taken at 15 min intervals and diluted with 100 μL of MeOH/ACN. After mixing, the sample was centrifuged at approximately 13000 rpm for 12 min. The supernatant was filtered and transferred into an autosampler vial and the amount of test compound was quantified using the Shimadzu LCMS-2010EV system. The change of the AUC of the parent compound in function of time was used as a measure of plasma stability.

A short description of series [3]: PK: brain and plasma levels collected after the FST. The class given is in vivo, rat. Conditions: Wistar. The protocol: After the habituation swim and 24 hours prior to the test swim, rats were administered one of three doses of a mGlu2/3 NAM, with doses and pretreatment time based on maximal brain penetration as determined by PK studies for each compound. Blood and brain tissue were collected immediately after the FST and the PK properties of each compound were analyzed together with FST behavior. The modified forced swim test was carried out as described previously in Cryan et al., 2003. Briefly, rats were taken from the vivarium and immediately placed individually for 15 min in Pyrex cylinders (21×46 cm; Fisher Scientific, Tustin, Calif.), which were filled with water to a depth of 30 cm. The testing room was bright, and two bright (60-watt) lamps provided extra illumination above the cylinders. The rats were removed 15 min later, dried, and placed in their home cage. Twenty-four hours after their first exposure, the animals were again placed in the swim apparatus for 5 min, and behaviors were monitored from above by video camera for subsequent analysis. The rater of the behavioral patterns was blind with respect to the experimental conditions being scored. A time sampling technique was employed whereby the predominant behavior in each 5-sec period of the 300-sec test was recorded. Climbing behavior consisted of upward-directed movements of the forepaws along the side of the swim chamber. Swimming behavior was defined as movement (usually horizontal) throughout the swim chamber, which also included crossing into another quadrant. Immobility was assigned when no additional activity was observed other than that required to keep the rat's head above water.

Another series relates to Male Wistar rats. Nature of the series: Forced Swim Test (FST). It is filed as in vivo. To be noted: rat; immobility and swimming; FIG. 1. The protocol:
Male Wistar rats (Charles River, Hollister, Calif.), weighing 175-225 g (Charles River, Portage, Ind.) used for the forced swim test study were housed in pairs with food and water available ad libitum, except during testing, in a temperature and humidity controlled vivarium (21° C.). Rats were maintained on a 12-hour reverse light-dark cycle with lights on at 6 pm. All experimental procedures occurred during the dark cycle, were approved by the Institutional Animal Care and Use Committee of the Scripps Research Institute, and were in accordance with the Association for the Assessment and Accreditation of Laboratory Animal Care (AAALAC) guidelines. […]
After the habituation swim and 24 hours prior to the test swim, rats were administered one of three doses of a mGlu2/3 NAM, with doses and pretreatment time based on maximal brain penetration as determined by PK studies for each compound. Blood and brain tissue were collected immediately after the FST and the PK properties of each compound were analyzed together with FST behavior. […] Twenty-four hours after their first exposure, the animals were again placed in the swim apparatus for 5 min, and behaviors were monitored from above by video camera for subsequent analysis. The rater of the behavioral patterns was blind with respect to the experimental conditions being scored. […]

[4] abbreviates: 2.5 min compound incubation, read-out: mGlu2 EC50 (μM) (2.5 min).
Setting [5] is: read-out: mGlu2 EC50 (μM) (60 min), 60 min compound incubation.
[6] abbreviates: rat brain tissue, read-out: Brain.
Where [7] appears, read: mGlu2 EC50 (μM) (60 min), 60 min compound incubation.

Like-named read-outs stand apart in the source and are kept apart here.

This is an account of results in patent publication US9969726B2, “Metabotropic glutamate receptor negative allosteric modulators (NAMS) and uses thereof” (Sanford-Burnham Medical Research Institute, priority 2014, dated 2018).

Chain of rat mGlu2 receptor (P31421 19-872): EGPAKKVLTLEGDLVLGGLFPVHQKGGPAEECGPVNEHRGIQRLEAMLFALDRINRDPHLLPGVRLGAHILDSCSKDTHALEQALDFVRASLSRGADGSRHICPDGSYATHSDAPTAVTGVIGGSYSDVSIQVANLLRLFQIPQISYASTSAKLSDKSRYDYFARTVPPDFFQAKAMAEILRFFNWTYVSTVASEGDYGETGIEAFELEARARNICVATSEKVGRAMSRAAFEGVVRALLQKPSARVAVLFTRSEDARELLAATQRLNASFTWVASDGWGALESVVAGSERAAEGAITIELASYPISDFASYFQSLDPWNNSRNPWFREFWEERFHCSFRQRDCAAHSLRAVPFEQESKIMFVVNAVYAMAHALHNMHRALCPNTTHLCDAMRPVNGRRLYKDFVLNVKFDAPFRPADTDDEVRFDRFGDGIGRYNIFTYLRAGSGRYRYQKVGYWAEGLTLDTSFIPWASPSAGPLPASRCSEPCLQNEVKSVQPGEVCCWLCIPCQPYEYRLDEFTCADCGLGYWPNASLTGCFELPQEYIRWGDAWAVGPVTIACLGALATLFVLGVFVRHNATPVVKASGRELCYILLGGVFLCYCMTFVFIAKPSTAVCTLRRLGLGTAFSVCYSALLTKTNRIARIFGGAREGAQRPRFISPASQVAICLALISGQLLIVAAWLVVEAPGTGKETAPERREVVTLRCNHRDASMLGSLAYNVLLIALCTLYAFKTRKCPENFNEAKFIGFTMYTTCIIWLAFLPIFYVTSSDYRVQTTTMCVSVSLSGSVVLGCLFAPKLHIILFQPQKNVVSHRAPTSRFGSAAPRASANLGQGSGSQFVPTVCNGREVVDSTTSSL
Chain of rat mGlu3 receptor (P31422 23-879): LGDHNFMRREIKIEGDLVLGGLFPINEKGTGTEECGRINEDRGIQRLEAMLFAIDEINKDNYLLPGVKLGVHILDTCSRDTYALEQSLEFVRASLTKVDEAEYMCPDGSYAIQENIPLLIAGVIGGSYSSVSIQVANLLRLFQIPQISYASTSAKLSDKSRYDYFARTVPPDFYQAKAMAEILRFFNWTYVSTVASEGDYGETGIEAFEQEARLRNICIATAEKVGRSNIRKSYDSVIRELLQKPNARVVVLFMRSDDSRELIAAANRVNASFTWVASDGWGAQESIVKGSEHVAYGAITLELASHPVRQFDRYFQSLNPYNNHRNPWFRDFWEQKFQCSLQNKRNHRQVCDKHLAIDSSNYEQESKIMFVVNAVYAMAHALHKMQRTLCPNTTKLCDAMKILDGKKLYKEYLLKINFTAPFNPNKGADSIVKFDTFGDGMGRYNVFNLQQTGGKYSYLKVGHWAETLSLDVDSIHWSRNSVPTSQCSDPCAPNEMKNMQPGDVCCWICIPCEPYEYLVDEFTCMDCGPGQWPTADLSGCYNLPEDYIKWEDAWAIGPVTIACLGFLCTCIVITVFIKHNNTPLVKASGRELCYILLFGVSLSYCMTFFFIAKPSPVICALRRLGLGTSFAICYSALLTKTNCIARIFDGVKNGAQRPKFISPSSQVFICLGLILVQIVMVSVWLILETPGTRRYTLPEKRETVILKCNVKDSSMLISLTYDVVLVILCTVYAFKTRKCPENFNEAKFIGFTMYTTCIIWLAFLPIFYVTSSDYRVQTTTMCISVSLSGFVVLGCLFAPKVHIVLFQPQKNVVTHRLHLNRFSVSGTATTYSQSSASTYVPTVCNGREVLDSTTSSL

The term EC50 denotes the concentration needed to bring the measured effect to its halfway point. Turning to `O=C(O)c1cc(F)cc(-c2cccc(-c3nc(-c4ccco4)cc(C(F)(F)F)n3)c2)c1` [Example 89, 5-Fluoro-3′-(4-(furan-2-yl)-6-(trifluoromethyl)pyrimidin-2-yl)biphenyl-3-carboxylic Acid], in series [1], the “Microsomal Stability, Percent Remaining @ 1 hour” value came to 82%. For the same compound, the concentration giving a half-maximal response (EC50) was 1.24 µM at rat mGlu2 receptor (setting [4]), 0.14 µM at rat mGlu2 receptor (setting [5]) and 2.25 µM on rat mGlu3 receptor. For the same compound, in series [2], the “Plasma Stability, Percent Remaining @ 1 hour” value stood at 100%.
With `O=C(O)c1cc(-c2cccc(-c3nc(-c4ccc(C(F)(F)F)nc4)cc(C(F)(F)F)n3)c2)ccc1F` [Example 73, 4-Fluoro-3′-(4-(trifluoromethyl)-6-(6-(trifluoromethyl)pyridin-3-yl)pyrimidin-2-yl)biphenyl-3-carboxylic Acid], the concentration at 24 h is 140 ± 90 nM in series [3] (setting [6]) and 9010 ± 2230 nM in series [3] (rat plasma, read-out: Plasma). The EC50 on rat mGlu2 receptor (setting [4]) was found to be 0.82 µM; on rat mGlu2 receptor (setting [5]), 0.17 µM; on rat mGlu3 receptor it was 1.18 µM.
On to `O=C(O)c1cc(-c2cccc(-c3nc(-c4ccoc4)cc(C(F)(F)F)n3)c2)ccc1F` [Example 94, 4-Fluoro-3′-(4-(furan-3-yl)-6-(trifluoromethyl)pyrimidin-2-yl)biphenyl-3-carboxylic Acid], for which the concentration at 24 h in series [3] (setting [6]) came out at 490 ± 60 nM; in series [3] (rat plasma, read-out: Plasma), 15900 ± 950 nM. Moreover, the EC50 at rat mGlu2 receptor (setting [5]) stood at 0.14 µM; on rat mGlu3 receptor, 0.28 µM.
Consider `COc1ccc(-c2cc(C(F)(F)F)nc(-c3cccc(-c4ccc(F)c(C(=O)O)c4)c3)n2)cc1` [Example 87, 4-Fluoro-3′-(4-(4-methoxyphenyl)-6-(trifluoromethyl)pyrimidin-2-yl)biphenyl-3-carboxylic Acid], for which, in series [1], the “Microsomal Stability, Percent Remaining @ 1 hour” value was 92%. In addition, the half-maximal effective concentration (EC50) on rat mGlu2 receptor (setting [4]) worked out at 1.07 µM; on rat mGlu2 receptor (setting [5]), 0.06 µM; on rat mGlu3 receptor, 1 µM. In addition, the “Plasma Stability, Percent Remaining @ 1 hour” value in series [2] amounted to 97%.
Consider `O=C(O)c1ccc(F)c(-c2cccc(-c3nc(-c4ccoc4)cc(C(F)(F)F)n3)c2)c1` [Example 114, 6-Fluoro-3′-(4-(furan-3-yl)-6-(trifluoromethyl)pyrimidin-2-yl)biphenyl-3-carboxylic Acid], for which the “Microsomal Stability, Percent Remaining @ 1 hour” value in series [1] was found to be 66%. Also, the figures for the EC50 on rat mGlu2 receptor (setting [4]) and on rat mGlu3 receptor were 0.4 µM and 1.36 µM, respectively. Further, the “Plasma Stability, Percent Remaining @ 1 hour” value in series [2] was found to be 93%.
For `O=C(O)c1cccc(-c2cccc(-c3cc(-c4ccccc4)on3)c2)c1` [Example 49, 3′-(5-Phenylisoxazol-3-yl)-[1,1′-biphenyl]-3-carboxylic Acid], the concentration at 24 h in series [3] (setting [6]) came to 500 ± 50 nM; in series [3] (rat plasma, read-out: Plasma), 19200 ± 2100 nM. The values for the EC50 at rat mGlu2 receptor (setting [4]), on rat mGlu2 receptor (setting [7]) and at rat mGlu3 receptor were > 10 µM, > 30 µM and > 10 µM, respectively.
Regarding `O=C1CC(c2cccc(-c3cccnc3)c2)=Nc2ccc(Br)cc2N1` [Example 179, 8-Bromo-4-(3-(pyridin-3-yl)phenyl)-1,3-dihydro-2H-benzo[b][1,4]diazepin-2-one], the “Microsomal Stability, Percent Remaining @ 1 hour” value in series [1] is recorded as 30%. For the same compound, the EC50 turned out to be 2.74 µM on rat mGlu2 receptor (setting [4]), 0.02 µM at rat mGlu2 receptor (setting [5]) and 1.37 µM at rat mGlu3 receptor. The “Plasma Stability, Percent Remaining @ 1 hour” value in series [2] was 100%.
On the same counts, the results for `Cc1cc2c(cc1C(F)(F)F)NC(=O)CC(c1cccc(S(=O)(=O)c3ncccn3)c1)=N2` [Example 137, 7-Methyl-4-(3-(pyrimidin-2-ylsulfonyl)phenyl)-8-(trifluoromethyl)-1H-benzo[b][1,4]diazepin-2(3H)-one] are 68%, 0.45 µM, 0.06 µM, 0.3 µM and 66%.
Take `O=C(O)c1ccc(F)c(-c2cccc(-c3nc(-c4ccc(C(F)(F)F)nc4)cc(C(F)(F)F)n3)c2)c1` [Example 79, 6-Fluoro-3′-(4-(trifluoromethyl)-6-(6-(trifluoromethyl)pyridin-3-yl)pyrimidin-2-yl)biphenyl-3-carboxylic Acid]: the “Microsomal Stability, Percent Remaining @ 1 hour” value in series [1] is given as 82%. For the same compound, the values for the EC50 on rat mGlu2 receptor (setting [4]), on rat mGlu2 receptor (setting [5]) and at rat mGlu3 receptor were 0.83 µM, 0.09 µM and 0.89 µM, respectively. Moreover, the “Plasma Stability, Percent Remaining @ 1 hour” value in series [2] is reported as 86%.
On the same counts, the results for `Cc1cc2c(cc1C(F)(F)F)NC(=O)CC(c1cccc(Sc3ncccn3)c1)=N2` [Example 136, 7-Methyl-4-(3-(pyrimidin-2-ylthio)phenyl)-8-(trifluoromethyl)-1H-benzo[b][1,4]diazepin-2(3H)-one] are 90%, 0.88 µM, 0.04 µM, 0.81 µM and 99%.
In the case of `N#Cc1cc(C2=Nc3ccc(Br)cc3NC(=O)C2)ccn1` [Example 182, 4-(8-Bromo-2-oxo-2,3-dihydro-1H-benzo[b][1,4]diazepin-4-yl)picolinonitrile], the concentration at 24 h in series [3] (setting [6]) was 280 ± 100 nM; in series [3] (rat plasma, read-out: Plasma), 160 ± 30 nM. Moreover, the half-maximal effective concentration (EC50) on rat mGlu2 receptor (setting [4]), at rat mGlu2 receptor (setting [5]) and at rat mGlu3 receptor was 0.04 µM in each case. The “antidepressant activity in the Forced Swim Test” value in the series with Male Wistar rats is “decreasing immobility and increasing swimming”.
As to `O=C(O)c1cc(F)cc(-c2cccc(-c3nsc(-c4ccoc4)n3)c2)c1` [Example 43, 5-Fluoro-3′-(5-(furan-3-yl)-1,2,4-thiadiazol-3-yl)biphenyl-3-carboxylic Acid], in series [1], the “Microsomal Stability, Percent Remaining @ 1 hour” value is 66%. In addition, the concentration at 24 h in series [3] (setting [6]) was determined as 210 ± 40 nM; in series [3] (rat plasma, read-out: Plasma), 4690 ± 780 nM. The EC50 at rat mGlu2 receptor (setting [4]) was 0.17 µM; on rat mGlu2 receptor (setting [7]) it was 0.11 µM; at rat mGlu3 receptor, 3.43 µM. The “Plasma Stability, Percent Remaining @ 1 hour” value in series [2] is 95%.
Regarding `O=C1CC(c2ccnc(Br)c2)=Nc2ccc(C(F)(F)F)cc2N1` [Example 191, 4-(2-Bromopyridin-4-yl)-8-(trifluoromethyl)-1,3-dihydro-2H-benzo[b][1,4]diazepin-2-one], the concentration at 24 h in series [3] (setting [6]) turned out to be 1430 ± 460 nM; in series [3] (rat plasma, read-out: Plasma), 280 ± 60 nM. The values for the EC50 at rat mGlu2 receptor (setting [4]), on rat mGlu2 receptor (setting [5]) and on rat mGlu3 receptor were 0.25 µM, 0.08 µM and 0.18 µM, respectively. In addition, the “antidepressant activity in the Forced Swim Test” value in the series with Male Wistar rats is “decreasing immobility and increasing swimming”.
Regarding `O=C(O)c1cc(-c2cccc(-c3nc(-c4ccsc4)cc(C(F)(F)F)n3)c2)ccc1F` [Example 122, 4-Fluoro-3′-(4-(thiophen-3-yl)-6-(trifluoromethyl)pyrimidin-2-yl)-[1,1′-biphenyl]-3-carboxylic Acid], the “Microsomal Stability, Percent Remaining @ 1 hour” value in series [1] is given as 83%. The EC50 at rat mGlu2 receptor (setting [5]) was 0.07 µM; at rat mGlu3 receptor it was 0.53 µM. Also, the “Plasma Stability, Percent Remaining @ 1 hour” value in series [2] amounted to 83%.
